Measured values: patent US20020137929A1, “1 - (3-heterocyclylphenyl) isothiourea, -isourea, -guanidine and -amidine herbicidal agents” (Intellectual Property Department, BASF Aktiengesellschaft, priority 1998, published 2002)

Legend:
[1] = system: GALAP (Galium); assay: Postemergence herbicidal evaluation; format: in vivo, Galium aparine; conditions: postemergence
Summary of the method: (§1)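 ~2-wk seedlings; postemergence spray, 40 psi; vehicle 1:1 acetone:water + 0.5% Tween 20; rate ≈0.0156–0.500 kg/ha; greenhouse hold; scored 4–5 wk after treatment, 0–9 scale vs control; repeat tests averaged.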

[2] = system: IPOHE (Morningglory, Ivyleaf); assay: Postemergence herbicidal evaluation; format: in vivo, Ipomoea hederacea; conditions: postemergence
Summary of the method: as §1

[3] = system: SETVI (Foxtail, Green); assay: Postemergence herbicidal evaluation; format: in vivo, Setaria viridis; conditions: postemergence
Summary of the method: as §1

[4] = system: TRZAWR (Wheat, Winter, cv Riband); assay: Postemergence herbicidal evaluation; format: in vivo, Triticum aestivum; conditions: postemergence
Summary of the method: as §1

[5] = system: ABUTH (Velvetleaf); assay: Preemergence herbicidal evaluation; format: in vivo, Abutilon theophrasti; conditions: rated 4-5 weeks after treatment
Summary of the method: (§2)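 In this greenhouse assay, monocot and dicot seeds are planted in soil and treated prior to emergence with an aqueous acetone spray (about 0.0156-0.500 kg/ha). Plants are assessed visually against control on a 0-9 scale after 4-5 weeks.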

[6] = system: IPOHE (Morningglory, Ivyleaf); assay: Preemergence herbicidal evaluation; format: in vivo, Ipomoea hederacea; conditions: rated 4-5 weeks after treatment
Summary of the method: as §2

[7] = system: ECHCG (Barnyardgrass); assay: Preemergence herbicidal evaluation; format: in vivo, Echinochloa crus-galli; conditions: rated 4-5 weeks after treatment
Summary of the method: as §2

[8] = system: SETVI (Foxtail, Green); assay: Preemergence herbicidal evaluation; format: in vivo, Setaria viridis; conditions: rated 4-5 weeks after treatment
Summary of the method: as §2

[9] = system: ZEAMX (Corn, Field); assay: Preemergence herbicidal evaluation; format: in vivo, Zea mays; conditions: rated 4-5 weeks after treatment
Summary of the method: as §2

[10] = system: ECHORC (Watergrass (Calif.)); assay: Preemergence weed control under flooded paddy conditions; format: in vivo, Echinochloa oryzoides; conditions: rated 3-4 weeks after treatment
Summary of the method: (§3)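 Seeds or propagules sown in silt loam kept flooded 1.5-3 cm; compounds in 50/50 acetone/water pipetted into flood water at about 0.0313 to 0.500 kg/ha. Greenhouse; visual 0-9 rating versus untreated control 3-4 weeks after treatment.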

[11] = system: CYPIR (Rice Flatsedge); assay: as above; format: in vivo, Cyperus iria; conditions: rated 3-4 weeks after treatment
Summary of the method: as §3

[12] = system: MOOVA (Monochoria); assay: as above; format: in vivo, Monochoria vaginalis; conditions: rated 3-4 weeks after treatment
Summary of the method: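 Visual injury scored 0-9 against control three to four weeks post-treatment, greenhouse-grown. Application: acetone/water (50/50) solutions dosed directly into flood water (1.5-3 cm over silt loam, planted top 0.5 cm), roughly 0.0313 to 0.500 kg/ha active ingredient.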

[13] = rate 0.1250 kg/ha, rating scale 0-9
[14] = rate 0.2500 kg/ha, rating scale 0-9

COCCOC(=O)CN1C(=O)CSC1=Nc1cc(-n2c(=O)cc(C(F)(F)F)n(C)c2=O)c(F)cc1Cl [Compound 107, 2-Methoxyethyl 2-{{2-chloro-5-[3,6-dihydro-3-methyl-2,6-dioxo-4-(trifluoromethyl)-1(2H)-pyrimidinyl]-4-fluorophenyl}imino}-4-oxo-3-thiazolidineacetate]
5.0: herbicidal rating TRZAWR ([4]; rate 0.0630 kg/ha)
4.0: Preemergence herbicidal rating ZEAMX ([9]; rate 0.2500 kg/ha) | ECHORC herbicidal effect rating ([10]; 0.0625 kg/ha) | ECHORC herbicidal effect rating ([10]; 0.1250 kg/ha) | ECHORC herbicidal effect rating ([10]; 0.2500 kg/ha) | CYPIR herbicidal effect rating ([11]; 0.1250 kg/ha) | MOOVA herbicidal effect rating ([12]; 0.0313 kg/ha)
9.0: herbicidal rating IPOHE ([2]; rate 0.0158 kg/ha) | herbicidal rating IPOHE ([2]; rate 0.0630 kg/ha) | herbicidal rating SETVI ([3]; rate 0.0315 kg/ha) | herbicidal rating SETVI ([3]; rate 0.0630 kg/ha) | Preemergence herbicidal rating ABUTH ([5]; rate 0.1250 kg/ha) | Preemergence herbicidal rating ABUTH ([5]; rate 0.2500 kg/ha) | MOOVA herbicidal effect rating ([12]; 0.2500 kg/ha)
2.0: herbicidal rating TRZAWR ([4]; rate 0.0158 kg/ha)
3.0: herbicidal rating TRZAWR ([4]; rate 0.0315 kg/ha)
1.0: herbicidal rating SETVI ([3]; rate 0.0158 kg/ha) | Preemergence herbicidal rating ABUTH ([5]; rate 0.0625 kg/ha) | Preemergence herbicidal rating IPOHE ([6]; rate 0.1250 kg/ha) | Preemergence herbicidal rating ECHCG ([7]; rate 0.2500 kg/ha) | Preemergence herbicidal rating SETVI ([8]; rate 0.0625 kg/ha) | Preemergence herbicidal rating ZEAMX ([9]; rate 0.1250 kg/ha)
6.0: MOOVA herbicidal effect rating ([12]; 0.0625 kg/ha)
0.0: herbicidal rating GALAP ([1]; rate 0.0158 kg/ha) | herbicidal rating GALAP ([1]; rate 0.0315 kg/ha) | herbicidal rating GALAP ([1]; rate 0.0630 kg/ha) | Preemergence herbicidal rating ABUTH ([5]; rate 0.0313 kg/ha) | Preemergence herbicidal rating IPOHE ([6]; rate 0.0313 kg/ha) | Preemergence herbicidal rating IPOHE ([6]; rate 0.0625 kg/ha) | Preemergence herbicidal rating ECHCG ([7]; rate 0.0313 kg/ha) | Preemergence herbicidal rating ECHCG ([7]; rate 0.0625 kg/ha) | Preemergence herbicidal rating ECHCG ([7]; rate 0.1250 kg/ha) | Preemergence herbicidal rating SETVI ([8]; rate 0.0313 kg/ha) | Preemergence herbicidal rating SETVI ([8]; rate 0.1250 kg/ha) | Preemergence herbicidal rating ZEAMX ([9]; rate 0.0313 kg/ha) | Preemergence herbicidal rating ZEAMX ([9]; rate 0.0625 kg/ha) | ECHORC herbicidal effect rating ([10]; 0.0313 kg/ha) | CYPIR herbicidal effect rating ([11]; 0.0313 kg/ha) | CYPIR herbicidal effect rating ([11]; 0.0625 kg/ha)
7.0: herbicidal rating IPOHE ([2]; rate 0.0315 kg/ha) | Preemergence herbicidal rating IPOHE ([6]; rate 0.2500 kg/ha) | Preemergence herbicidal rating SETVI ([8]; rate 0.2500 kg/ha) | CYPIR herbicidal effect rating ([11]; 0.2500 kg/ha) | MOOVA herbicidal effect rating ([12]; 0.1250 kg/ha)

COC(=O)CSCCN1C(=O)CSC1=Nc1cc(-n2c(=O)cc(C(F)(F)F)n(C)c2=O)c(F)cc1Cl [Compound 158, Methyl {{2-{2-{{2-chloro-5-[3,6-dihydro-3-methyl-2,6-dioxo-4-(trifluoromethyl)-1(2H)-pyrimidinyl]-4-fluorophenyl}imino}-4-oxo-3-thiazolidinyl}ethyl}-thio}acetate]
1.0: Preemergence herbicidal rating IPOHE ([6]; 0.0156 kg/ha)
3.0: herbicidal rating GALAP ([1]; rate 0.0625 kg/ha) | herbicidal rating SETVI ([3]; rate 0.0313 kg/ha)
4.0: herbicidal rating TRZAWR ([4]; rate 0.0313 kg/ha) | Preemergence herbicidal rating IPOHE ([6]; 0.0313 kg/ha)
7.0: Preemergence herbicidal rating IPOHE ([6]; 0.0625 kg/ha) | Preemergence herbicidal rating ECHCG ([7]; 0.0313 kg/ha) | Preemergence herbicidal rating SETVI ([8]; 0.0156 kg/ha) | Preemergence herbicidal rating ZEAMX ([9]; 0.0313 kg/ha)
0.0: herbicidal rating GALAP ([1]; rate 0.0156 kg/ha)
2.0: herbicidal rating GALAP ([1]; rate 0.0313 kg/ha) | herbicidal rating SETVI ([3]; rate 0.0156 kg/ha) | Preemergence herbicidal rating ECHCG ([7]; 0.0156 kg/ha)
3.5: herbicidal rating TRZAWR ([4]; rate 0.0156 kg/ha) | herbicidal rating TRZAWR ([4]; rate 0.0625 kg/ha)
9.0: herbicidal rating IPOHE ([2]; rate 0.0156 kg/ha) | herbicidal rating IPOHE ([2]; rate 0.0313 kg/ha) | herbicidal rating IPOHE ([2]; rate 0.0625 kg/ha) | herbicidal rating SETVI ([3]; rate 0.0625 kg/ha) | Preemergence herbicidal rating ABUTH ([5]; 0.0156 kg/ha) | Preemergence herbicidal rating ABUTH ([5]; 0.0313 kg/ha) | Preemergence herbicidal rating ABUTH ([5]; 0.0625 kg/ha) | Preemergence herbicidal rating ABUTH [5, 13] | Preemergence herbicidal rating ABUTH [5, 14] | Preemergence herbicidal rating IPOHE [6, 13] | Preemergence herbicidal rating IPOHE [6, 14] | Preemergence herbicidal rating ECHCG ([7]; 0.0625 kg/ha) | Preemergence herbicidal rating ECHCG [7, 13] | Preemergence herbicidal rating ECHCG [7, 14] | Preemergence herbicidal rating SETVI ([8]; 0.0313 kg/ha) | Preemergence herbicidal rating SETVI ([8]; 0.0625 kg/ha) | Preemergence herbicidal rating SETVI [8, 13] | Preemergence herbicidal rating SETVI [8, 14] | Preemergence herbicidal rating ZEAMX [9, 13] | Preemergence herbicidal rating ZEAMX [9, 14] | herbicidal effect rating, ECHORC ([10]; 0.0313 kg/ha) | herbicidal effect rating, ECHORC ([10]; 0.0625 kg/ha) | herbicidal effect rating, ECHORC ([10]; 0.1250 kg/ha) | herbicidal effect rating, ECHORC ([10]; 0.2500 kg/ha) | herbicidal effect rating, CYPIR ([11]; 0.0313 kg/ha) | herbicidal effect rating, CYPIR ([11]; 0.0625 kg/ha) | herbicidal effect rating, CYPIR ([11]; 0.1250 kg/ha) | herbicidal effect rating, CYPIR ([11]; 0.2500 kg/ha) | herbicidal effect rating, MOOVA ([12]; 0.0313 kg/ha) | herbicidal effect rating, MOOVA ([12]; 0.0625 kg/ha) | herbicidal effect rating, MOOVA ([12]; 0.1250 kg/ha) | herbicidal effect rating, MOOVA ([12]; 0.2500 kg/ha)
8.0: Preemergence herbicidal rating ZEAMX ([9]; 0.0625 kg/ha)
5.0: Preemergence herbicidal rating ZEAMX ([9]; 0.0156 kg/ha)
